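Values below derive from 48-hour exposures of cells grown in 96-well plates, with endpoints linearly interpolated between the two concentrations bracketing the appropriate inhibition level. Here, GI50 denotes the concentration required for 50% inhibition of growth. TGI: total growth inhibition.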
What was measured:
Assay in all cases: NCI anticancer screen, dose series, 48 h
ACHN renal = tested on: ACHN renal
LOX IMVI melanoma = tested on: LOX IMVI melanoma
MDA-MB-231 breast = tested on: MDA-MB-231 breast
NCI-H460 lung = tested on: NCI-H460 lung
NCI/ADR-RES ovarian = tested on: NCI/ADR-RES ovarian
SF-539 CNS = tested on: SF-539 CNS
SW-620 colon = tested on: SW-620 colon
UACC-62 melanoma = tested on: UACC-62 melanoma
MALME-3M melanoma = tested on: MALME-3M melanoma
MOLT-4 leukemia = tested on: MOLT-4 leukemia

Compound	GI50 (ACHN renal)	TGI (ACHN renal)	GI50 (LOX IMVI melanoma)	TGI (LOX IMVI melanoma)	GI50 (MDA-MB-231 breast)	TGI (MDA-MB-231 breast)	GI50 (NCI-H460 lung)	TGI (NCI-H460 lung)	GI50 (NCI/ADR-RES ovarian)	TGI (NCI/ADR-RES ovarian)	GI50 (SF-539 CNS)	TGI (SF-539 CNS)	GI50 (SW-620 colon)	TGI (SW-620 colon)	GI50 (UACC-62 melanoma)	TGI (UACC-62 melanoma)	TGI (MALME-3M melanoma)	TGI (MOLT-4 leukemia)	GI50 (MOLT-4 leukemia)	GI50 (MALME-3M melanoma)
CC1OC(OC2C(O)C(OCCc3ccc(O)c(O)c3)OC(CO)C2OC(=O)/C=C/c2ccc(O)c(O)c2)C(O)C(O)C1O (stereo not given)	18.9 µM	37 µM	18.2 µM	36 µM	16.3 µM	34.7 µM	> 100 µM	> 100 µM	> 100 µM	> 100 µM	22.9 µM	40.9 µM	28.7 µM	72 µM	19.1 µM	45.5 µM	–	–	–	–
CCCCCCCCCCCCCP(=O)(OC)OC	–	32.4 µM	–	35.3 µM	–	–	–	31.3 µM	–	–	–	30.9 µM	–	32.4 µM	–	32.2 µM	38.3 µM	36.5 µM	–	–
CC(O)(c1ccc(OCCC[N+](C)(C)C)cc1)C(C)(O)c1ccc(OCCC[N+](C)(C)C)cc1 (stereo not given)	–	> 100 µM	–	> 100 µM	–	–	–	> 100 µM	–	–	–	> 100 µM	–	> 100 µM	–	> 100 µM	> 100 µM	–	–	–
O=C(O)CC(S)C(=O)O.[Li+].[Sb] (stereo not given)	> 100 µM	> 100 µM	47.1 µM	> 100 µM	> 100 µM	> 100 µM	89.5 µM	> 100 µM	> 100 µM	> 100 µM	–	–	> 100 µM	> 100 µM	> 100 µM	> 100 µM	–	> 100 µM	64.8 µM	–
O=C(CC1(O)C(=O)Nc2c(Cl)cc(Cl)cc21)c1ccc([N+](=O)[O-])cc1 (stereo not given)	–	> 100 µM	–	> 100 µM	–	–	–	> 100 µM	–	–	–	> 68.7 µM	–	> 63 µM	–	> 53.6 µM	> 60.7 µM	> 100 µM	–	–
Cc1cc(=O)n2c(cc3cccccc32)n1	–	> 100 µM	–	> 100 µM	–	–	–	> 100 µM	–	–	–	> 100 µM	–	> 100 µM	–	> 100 µM	–	> 100 µM	–	–
CC(C)c1ccc(C(O)(C(=O)O)c2ccc(C(C)C)cc2)cc1	–	> 100 µM	–	> 100 µM	–	–	–	> 100 µM	–	> 100 µM	–	> 100 µM	–	> 100 µM	–	> 100 µM	> 100 µM	> 100 µM	–	–
CSC(=NC(=O)c1ccccc1)SCCSC(=NC(=O)c1ccccc1)SC	–	> 100 µM	–	> 100 µM	–	–	–	> 100 µM	–	–	–	> 100 µM	–	> 100 µM	–	> 100 µM	> 100 µM	> 100 µM	–	–
Cc1nccc2c3ccc(OCc4cn(-c5ccc(Br)cc5)nn4)cc3n(CCCc3ccccc3)c12	1.23 µM	3.52 µM	–	–	–	–	3.03 µM	> 100 µM	1.79 µM	4.61 µM	1.72 µM	3.4 µM	–	–	2.46 µM	7.08 µM	3.57 µM	> 100 µM	5.55 µM	1.62 µM
CC(Oc1ccc2c(=O)cc(-c3ccccc3)oc2c1)C(=O)O (stereo not given)	–	> 100 µM	–	> 100 µM	–	–	–	> 100 µM	–	–	–	> 100 µM	–	> 100 µM	–	> 100 µM	> 100 µM	> 100 µM	–	–
c1ccc(N2CCN(CCCN3CCc4c([nH]c5ccccc45)C3c3cccnc3)CC2)cc1 (stereo not given)	–	> 100 µM	–	> 100 µM	–	–	–	> 100 µM	–	–	–	> 100 µM	–	> 100 µM	–	> 100 µM	> 77.3 µM	> 100 µM	–	–
Cc1ccc(-c2nc3ccccc3c(=O)n2NC2OC(CO)C(O)C(O)C2O)cc1 (stereo not given)	–	> 100 µM	–	–	–	–	–	> 100 µM	–	–	–	> 100 µM	–	> 100 µM	–	> 100 µM	> 100 µM	> 100 µM	–	–
CCOC(=O)Nc1cc2c(c(N)n1)N=C(c1ccccc1)CN2	< 0.0001 µM	21.6 µM	< 0.0001 µM	32.9 µM	< 0.0001 µM	0.00463 µM	< 0.0001 µM	0.485 µM	–	–	–	–	< 0.0001 µM	> 53 µM	–	–	50.8 µM	–	–	< 0.0001 µM
CC1(C)C=C(N2CCN(C3=CC(C)(C)NC(C)(C)C3)CC2)CC(C)(C)N1	–	> 100 µM	–	> 100 µM	–	–	–	> 100 µM	–	–	–	> 100 µM	–	> 100 µM	–	> 100 µM	–	> 100 µM	–	–
CN(CCc1ccccn1)/[N+]([O-])=N/O (tested in a mixture with another compound)	–	> 100 µM	–	–	–	–	–	> 100 µM	–	–	–	> 100 µM	–	> 100 µM	–	> 100 µM	> 100 µM	> 100 µM	–	–
COC1/C=C/OC2(C)Oc3c(C)c(O)c4c(O)c(c(/C=N/N(c5ccccc5)c5ccccc5)c(O)c4c3C2=O)NC(=O)C(C)=C/C=C/C(C)C(O)C(C)C(O)C(C)C(OC(C)=O)C1C (stereo not given)	1.75 µM	7.13 µM	1.04 µM	2.41 µM	1.38 µM	4.14 µM	1.52 µM	5.32 µM	3.76 µM	12.6 µM	1.44 µM	4.7 µM	1.05 µM	2.6 µM	0.992 µM	2.58 µM	9.36 µM	–	–	1.83 µM
O=C1C(c2ccccc2)=[N+]([O-])c2cc([N+](=O)[O-])ccc21	–	56.9 µM	–	28.6 µM	–	–	–	56.8 µM	–	–	–	57.3 µM	–	> 100 µM	–	26.9 µM	36.1 µM	51.6 µM	–	–
CC(=O)CCn1[nH]c(=O)c(Cl)c(Cl)c1=O	–	> 100 µM	–	> 100 µM	–	–	–	> 100 µM	–	–	–	> 100 µM	–	45.3 µM	–	> 100 µM	> 100 µM	> 100 µM	–	–
COC(=O)/C(=N\Nc1nc(=S)[nH]n1N)C(C#N)c1ccc(Cl)cc1 (stereo not given)	–	> 100 µM	–	> 100 µM	–	–	–	> 100 µM	–	–	–	> 100 µM	–	> 100 µM	–	> 100 µM	> 100 µM	–	–	–
C=C1CCCC2OC(OC)CCC12 (stereo not given)	–	> 100 µM	–	–	–	–	–	> 100 µM	–	–	–	> 100 µM	–	> 100 µM	–	> 100 µM	> 100 µM	> 100 µM	–	–

— PubChem BioAssay (NCI)
